Experimental data from ChEMBL document CHEMBL4819121, “Fused chromeno and quinolino[1,8]naphthyridines: Synthesis and biological evaluation as topoisomerase I inhibitors and antiproliferative agents” (Bioorg Med Chem, 2021).
Activity calls are given as the source filed them. No cut-off for these calls is given here.

Legend:
[1] = molecular target: T1, DNA topoisomerase 1 (Homo sapiens) (UniProt P11387); assay: Inhibition of recombinant human topoisomerase 1 expressed in yeast TopI null strain RS190 at 100 uM using negatively supercoiled pUC18 plasmid DNA as substrate incubated for 15 secs by agarose gel electrophoresis method; details: time 15.0 sec
T1 sequence (whole entry): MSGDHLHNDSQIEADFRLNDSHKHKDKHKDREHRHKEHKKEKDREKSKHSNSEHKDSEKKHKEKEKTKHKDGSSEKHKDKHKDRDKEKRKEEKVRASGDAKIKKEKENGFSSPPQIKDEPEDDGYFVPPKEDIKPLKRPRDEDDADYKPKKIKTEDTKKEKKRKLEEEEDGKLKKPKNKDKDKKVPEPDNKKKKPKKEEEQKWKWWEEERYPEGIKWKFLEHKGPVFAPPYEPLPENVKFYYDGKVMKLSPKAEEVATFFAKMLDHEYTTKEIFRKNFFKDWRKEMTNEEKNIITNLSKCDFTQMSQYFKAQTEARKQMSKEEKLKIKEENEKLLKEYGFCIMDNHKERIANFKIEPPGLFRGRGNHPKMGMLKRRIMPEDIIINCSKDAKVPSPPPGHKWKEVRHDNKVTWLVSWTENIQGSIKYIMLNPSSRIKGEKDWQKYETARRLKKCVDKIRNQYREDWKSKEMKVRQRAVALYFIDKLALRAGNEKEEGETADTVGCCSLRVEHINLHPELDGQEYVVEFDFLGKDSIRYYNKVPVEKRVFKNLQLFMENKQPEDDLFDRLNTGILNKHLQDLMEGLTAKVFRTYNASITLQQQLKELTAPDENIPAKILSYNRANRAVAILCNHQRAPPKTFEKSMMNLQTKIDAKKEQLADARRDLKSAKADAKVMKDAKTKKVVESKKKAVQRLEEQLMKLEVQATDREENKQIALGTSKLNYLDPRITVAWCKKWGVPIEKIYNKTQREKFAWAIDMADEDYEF

[2] = molecular target: T1, DNA topoisomerase 1 (Homo sapiens); assay: Inhibition of recombinant human topoisomerase 1 expressed in yeast TopI null strain RS190 at 100 uM using negatively supercoiled pUC18 plasmid DNA as substrate incubated for 1 min by agarose gel electrophoresis method
[3] = molecular target: T1, DNA topoisomerase 1 (Homo sapiens); assay: Inhibition of recombinant human topoisomerase 1 expressed in yeast TopI null strain RS190 at 100 uM using negatively supercoiled pUC18 plasmid DNA as substrate incubated for 3 min by agarose gel electrophoresis method
[4] = molecular target: T1, DNA topoisomerase 1 (Homo sapiens); assay: Poison activity at recombinant human topoisomerase 1 expressed in yeast TopI null strain RS190 assessed as increase in nicked plasmid DNA at 100 uM using supercoiled pUC18 plasmid DNA as substrate incubated for 15 to 180 secs by Ethidium bromide staining based agarose gel electrophoresis analysis; details: time 15-180 sec
A549 = assay: Antiproliferative activity against human A549 cells assessed as cell growth inhibition measured after 48 hrs by CCK-8 assay; type: functional, cell-based; details: A549, 48 h
SK-OV-3 = assay: Antiproliferative activity against human SK-OV-3 cells assessed as cell growth inhibition measured after 48 hrs by CCK-8 assay; type: functional, cell-based; details: SK-OV-3, 48 h
MRC5 = assay: Antiproliferative activity against human MRC5 cells assessed as cell growth inhibition measured after 48 hrs by CCK-8 assay; type: cell-based; details: MRC5, 48 h

Cc1ccc(S(=O)(=O)N2C[C@H]3[C@H](c4ccccc4)c4cccnc4N[C@@H]3c3ccccc32)cc1
inhibition [1]: 91% | inhibition [2]: 89% | inhibition [3]: 85% | Activity [4]: Active | IC50 (A549): 6.3 µM | IC50 (SK-OV-3): 8.21 µM | IC50 (MRC5): > 50 µM

c1ccc(-c2c3c(nc4ncccc24)-c2ccccc2OC3)cc1
inhibition [1]: 10% | inhibition [2]: 9% | inhibition [3]: 2% | IC50 (A549): > 50 µM | IC50 (SK-OV-3): > 50 µM | IC50 (MRC5): > 50 µM

O=c1oc2ccccc2c2nc3ncc(Br)cc3c(-c3ccccc3)c12
inhibition [1]: 21% | inhibition [2]: 15% | inhibition [3]: 5% | IC50 (A549): > 50 µM | IC50 (SK-OV-3): > 50 µM | IC50 (MRC5): > 50 µM

Cc1ccc(S(=O)(=O)N2Cc3c(nc4ncccc4c3-c3ccccc3)-c3ccccc32)cc1
inhibition [1]: 95% | inhibition [2]: 93% | inhibition [3]: 92% | IC50 (A549): 17.9 µM | IC50 (SK-OV-3): 16.9 µM | IC50 (MRC5): > 50 µM

O=c1oc2ccc(F)cc2c2nc3ncccc3c(-c3ccccc3)c12
inhibition [1]: 5% | inhibition [2]: 4% | inhibition [3]: 4% | IC50 (A549): > 50 µM | IC50 (SK-OV-3): > 50 µM | IC50 (MRC5): > 50 µM

O=C1Oc2ccccc2[C@H]2Nc3ncc(Br)cc3[C@@H](c3ccccc3)[C@H]12
inhibition [1]: 11% | inhibition [2]: 10% | inhibition [3]: 1% | IC50 (A549): > 50 µM | IC50 (SK-OV-3): > 50 µM | IC50 (MRC5): > 50 µM

Fc1ccc2c(c1)-c1nc3ncccc3c(-c3ccccc3)c1CO2
inhibition [1]: 41% | inhibition [2]: 40% | inhibition [3]: 11% | IC50 (A549): 31.2 µM | IC50 (SK-OV-3): 38.1 µM | IC50 (MRC5): > 50 µM

Cc1ccc2c(c1)-c1nc3ncccc3c(-c3ccccc3)c1CO2
inhibition [1]: 26% | inhibition [2]: 1% | inhibition [3]: 1% | IC50 (A549): > 50 µM | IC50 (SK-OV-3): > 50 µM | IC50 (MRC5): > 50 µM

CC[C@@]1(O)C(=O)OCc2c1cc1n(c2=O)Cc2cc3ccccc3nc2-1
Activity [4]: Active

Fc1ccc2c(c1)[C@H]1Nc3ncccc3[C@@H](c3ccccc3)[C@@H]1CO2
inhibition [1]: 14% | inhibition [2]: 14% | inhibition [3]: 1% | IC50 (A549): > 50 µM | IC50 (SK-OV-3): > 50 µM | IC50 (MRC5): > 50 µM

c1ccc([C@@H]2c3cccnc3N[C@@H]3c4ccccc4OC[C@@H]23)cc1
inhibition [1]: 61% | inhibition [2]: 60% | inhibition [3]: 5% | IC50 (A549): 11.7 µM | IC50 (SK-OV-3): 12.2 µM | IC50 (MRC5): > 50 µM

O=C1Oc2ccc(F)cc2[C@H]2Nc3ncccc3[C@@H](c3ccccc3)[C@H]12
inhibition [1]: 5% | inhibition [2]: 5% | inhibition [3]: 4% | IC50 (A549): > 50 µM | IC50 (SK-OV-3): > 50 µM | IC50 (MRC5): > 50 µM

O=c1oc2ccccc2c2nc3ncccc3c(-c3ccccc3)c12
inhibition [1]: 75% | inhibition [2]: 75% | inhibition [3]: 51% | IC50 (A549): 1.23 µM | IC50 (SK-OV-3): 1.78 µM | IC50 (MRC5): > 50 µM

COc1ccc(-c2c3c(nc4ncccc24)-c2ccccc2OC3)cc1
inhibition [1]: 11% | inhibition [2]: 11% | inhibition [3]: 6% | IC50 (A549): > 50 µM | IC50 (SK-OV-3): > 50 µM | IC50 (MRC5): > 50 µM

Cc1ccc2c(c1)[C@H]1Nc3ncccc3[C@@H](c3ccccc3)[C@@H]1CO2
inhibition [1]: 21% | inhibition [2]: 15% | inhibition [3]: 1% | IC50 (A549): > 50 µM | IC50 (SK-OV-3): > 50 µM | IC50 (MRC5): > 50 µM

Cc1ccc(S(=O)(=O)N2Cc3c(nc4ncc(Br)cc4c3-c3ccccc3)-c3ccccc32)cc1
inhibition [1]: 98% | inhibition [2]: 98% | inhibition [3]: 95% | Activity [4]: Active | IC50 (A549): 10.5 µM | IC50 (SK-OV-3): 12.2 µM | IC50 (MRC5): > 50 µM
